According to patent US20230091225A1, “Bifunctional chimeric heterocyclic compounds for targeted degradation of androgen receptors and use thereof” (HINOVA PHARMACEUTICALS INC., priority 2019, published 2023):

Target: T1, androgen receptor (AR) (Homo sapiens, UniProt P10275)
T1 sequence (P10275 1-920): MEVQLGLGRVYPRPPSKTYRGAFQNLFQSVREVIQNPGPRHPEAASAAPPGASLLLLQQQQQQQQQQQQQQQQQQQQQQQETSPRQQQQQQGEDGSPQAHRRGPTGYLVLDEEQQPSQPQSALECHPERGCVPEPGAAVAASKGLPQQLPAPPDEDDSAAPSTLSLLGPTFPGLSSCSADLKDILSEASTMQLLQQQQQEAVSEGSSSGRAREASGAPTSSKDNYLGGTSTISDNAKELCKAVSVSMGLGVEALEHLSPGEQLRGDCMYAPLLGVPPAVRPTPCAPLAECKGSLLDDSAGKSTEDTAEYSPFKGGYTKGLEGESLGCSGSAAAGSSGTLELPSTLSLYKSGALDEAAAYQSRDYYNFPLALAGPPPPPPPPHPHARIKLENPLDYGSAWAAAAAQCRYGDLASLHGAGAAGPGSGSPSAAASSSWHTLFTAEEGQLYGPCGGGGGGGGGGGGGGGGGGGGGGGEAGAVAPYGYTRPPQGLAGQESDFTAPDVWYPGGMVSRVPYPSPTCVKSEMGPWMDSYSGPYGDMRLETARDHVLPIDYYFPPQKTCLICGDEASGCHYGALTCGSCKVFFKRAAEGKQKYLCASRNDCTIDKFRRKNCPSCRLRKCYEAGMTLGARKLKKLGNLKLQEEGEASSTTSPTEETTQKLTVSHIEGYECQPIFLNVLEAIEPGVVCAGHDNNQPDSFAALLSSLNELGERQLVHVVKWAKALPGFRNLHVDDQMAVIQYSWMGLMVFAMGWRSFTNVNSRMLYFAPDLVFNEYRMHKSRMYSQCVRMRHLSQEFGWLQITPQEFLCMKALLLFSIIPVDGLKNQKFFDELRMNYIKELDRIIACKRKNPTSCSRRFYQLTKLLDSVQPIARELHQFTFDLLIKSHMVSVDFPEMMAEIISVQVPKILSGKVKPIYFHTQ
Experiment: Degradation of androgen receptor (AR) protein in VCaP cells by Western blot
Type: cell-based
Settings: percentage of degraded AR at 100 nM, VCaP cells, 16 h
How it was run: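 VCaP cells (5×10^5/well) were seeded overnight, then treated in duplicate for 16 h with compound in 0.1% DMSO final. Lysates (30 μg protein) were immunoblotted for AR (D6F11) with β-actin as loading control, detected by ECL chemiluminescence.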

SMILES | inhibition at 0.1 µM | % degradation
N#Cc1ccc(O[C@H]2CC[C@H](NC(=O)c3ccc(N4CCC(CN5CCC(Nc6ccc7c(c6)C(=O)N(C6CCC(=O)NC6=O)C7=O)CC5)CC4)nn3)CC2)cc1Cl (some centres unmarked) [Compound 143] | > 80% | 
N#Cc1ccc(O[C@H]2CC[C@@H](NC(=O)c3cnc(N4CCN([C@@H]5C[C@@H]6CN(c7cc8c(cc7F)C(=O)N(C7CCC(=O)NC7=O)C8=O)C[C@@H]6C5)CC4)cn3)CC2)cc1Cl (stereo partly drawn) [Compound 295, N-((1s,4s)-4-(3-chloro-4-cyanophenoxy)cyclohexyl)-5-(4-((3aR,5R,6aS)-2-(2-(2,6-dioxopiperidin-3-yl)-6-fluoro-1,3-dioxoisoindolin-5-yl)octahydrocyclopenta[c]pyrrol-5-yl)piperazin-1-yl)pyrazine-2-carboxamide] |  | C (49%-25%)
N#Cc1ccc(O[C@H]2CC[C@H](NC(=O)c3ccc(N4CCC5(CC4)CN(C4CCN(c6cc7c(cc6F)C(=O)N(C6CCC(=O)NC6=O)C7=O)CC4)C5)nn3)CC2)cc1Cl (some centres unmarked) [Compound 71] | > 80% | 
N#Cc1ccc(O[C@H]2CC[C@H](NC(=O)c3cnc(N4CCC(N5CC6CN(c7ccc8c(c7)C(=O)N(C7CCC(=O)NC7=O)C8=O)CC6C5)CC4)cn3)CC2)cc1Cl (some centres unmarked) [Compound 63, N-((1r,4r)-4-(3-chloro-4-cyanophenoxy)cyclohexyl)-5-(4-(5-(2-(2,6-dioxopiperidin-3-yl)-1,3-dioxoisoindolin-5-yl)hexahydropyrrolo[3,4-c]pyrrol-2(1H)-yl)piperidin-1-yl)pyrazine-2-carboxamide] | 50 to 79% | 
N#Cc1ccc(O[C@H]2CC[C@H](NC(=O)c3cnc(N4CCC5(CC4)CN(C4CCN(c6cc7c(cc6F)C(=O)N(C6CCC(=O)NC6=O)C7=O)CC4)C5)cn3)CC2)cc1Cl (some centres unmarked) [Compound 289] | > 80% | 
N#Cc1ccc(O[C@H]2CC[C@H](NC(=O)c3cnc(N4CCC(N5CCC6(CCN(c7cc8c(cc7F)C(=O)N(C7CCC(=O)NC7=O)C8=O)C6)C5)CC4)cn3)CC2)cc1Cl (some centres unmarked) [Compound 165, N-((1r,4r)-4-(3-chloro-4-cyanophenoxy)cyclohexyl)-5-(4-(7-(2-(2,6-dioxopiperidin-3-yl)-6-fluoro-1,3-dioxoisoindolin-5-yl)-2,7-diazaspiro[4.4]nonan-2-yl)piperidin-1-yl)pyrazine-2-carboxamide] | > 80% | 
N#Cc1ccc(O[C@H]2CC[C@H](N3Cc4nc(C#CC5CCN(C6CCN(c7ccc8c(c7)C(=O)N(C7CCC(=O)NC7=O)C8=O)CC6)CC5)ccc4C3=O)CC2)cc1Cl (some centres unmarked) [Compound 323] | < 25% | 
CN(C1CCN(c2cc3c(cc2F)C(=O)N(C2CCC(=O)NC2=O)C3=O)CC1)C1CC(C#Cc2ccc3c(n2)CN([C@H]2C(C)(C)[C@H](Oc4ccc(C#N)c(Cl)c4)C2(C)C)C3=O)C1 (some centres unmarked) [Compound 332] | 50 to 79% | 
N#Cc1ccc(OC2CCC(NC(=O)c3ccc(N4C[C@@H]5C(CN6CCN(c7cc8c(cc7F)C(=O)N(C7CCC(=O)NC7=O)C8=O)CC6)[C@@H]5C4)nn3)CC2)cc1Cl (stereo partly drawn) [Compound 178, N-((1r,4R)-4-(3-chloro-4-cyanophenoxy)cyclohexyl)-6-((1R,5S,6S)-6-((4-(2-(2,6-dioxopiperidin-3-yl)-6-fluoro-1,3-dioxoisoindolin-5-yl)piperazin-1-yl)methyl)-3-azabicyclo[3.1.0]hexan-3-yl)pyridazine-3-formamide] |  | B (79%-50%)
CC1(C)[C@H](NC(=O)c2ccc(N3CCC(N4C[C@H]5CN(c6cc7c(cc6F)C(=O)N(C6CCC(=O)NC6=O)C7=O)C[C@H]5C4)CC3)nn2)C(C)(C)[C@H]1Oc1ccc(C#N)c(Cl)c1 (stereo partly drawn) [Compound 221, N-((1r,3R)-3-(3-chloro-4-cyanophenoxy)-2,2,4,4-tetramethylcyclobutyl)-6-(4-((3aR,6aS)-5-(2-(2,6-dioxopiperidin-3-yl)-6-fluoro-1,3-dioxoisoindolin-5-yl)hexahydropyrrolo[3,4-c]pyrrol-2(1H)-yl)piperidin-1-yl)pyridazine-3-carboxamide] | 25 to 49% | 
N#Cc1ccc(O[C@H]2CC[C@H](NC(=O)c3cnc(N4CCN([C@@H]5C[C@@H]6CN(c7ccc8c(c7)C(=O)N(C7CCC(=O)NC7=O)C8=O)C[C@@H]6C5)CC4)nc3)CC2)cc1Cl (stereo partly drawn) [Compound 300, N-((1r,4r)-4-(3-chloro-4-cyanophenoxy)cyclohexyl)-2-(4-((3aR,5R,6aS)-2-(2-(2,6-dioxopiperidin-3-yl)-1,3-dioxoisoindolin-5-yl)octahydrocyclopenta[c]pyrrol-5-yl)piperazin-1-yl)pyrimidine-5-carboxamide] | < 25% | 
N#Cc1ccc(OC2CCC(NC(=O)c3cnc(N4CCC(NC5CCN(c6cc7c(cc6F)C(=O)N(C6CCC(=O)NC6=O)C7=O)CC5)CC4)cn3)CC2)cc1Cl (centres unmarked) [Compound 73, N-((1r,4r)-4-(3-chloro-4-cyanophenoxy)cyclohexyl)-5-(4-((1-(2,6-dioxopiperidin-3-yl-6-fluoro-1,3-dioxoisoindolin-5-yl)piperidine-4-yl)amino)piperidin-1-yl)pyrazine-2-carboxamide] |  | A (>80%)
N#Cc1ccc(O[C@H]2CC[C@H](NC(=O)c3nnc(N4CC5(CCN(CC6CCN(c7ccc8c(c7)C(=O)N(C7CCC(=O)NC7=O)C8=O)CC6)CC5)C4)s3)CC2)cc1Cl (some centres unmarked) [Compound 105, N-((1r,4r)-4-(3-chloro-4-cyanophenoxy)cyclohexyl)-5-(7-((1-(2-(2,6-dioxopiperidin-3-yl)-1,3-dioxoisoindolin-5-yl)piperidine-4-yl)methyl)-2,7-diazaspiro[3.5]nonan-2-yl)-1,3,4-thiadiazole-2-carboxamide] | 50 to 79% | 

Further lines, with some results ahead:

inhibition at 0.1 µM | SMILES | % degradation
50 to 79% | N#Cc1ccc(O[C@H]2CC[C@H](NC(=O)c3cnc(N4C[C@@H]5[C@@H](CN6CCN(c7ccc8c(c7)C(=O)N(C7CCC(=O)NC7=O)C8=O)CC6)[C@@H]5C4)cn3)CC2)cc1Cl (stereo partly drawn) [Compound 177, N-((1r,4R)-4-(3-chloro-4-cyanophenoxy)cyclohexyl)-5-((1R,5S,6S)-6-((4-(2-(2,6-dioxopiperidin-3-yl)-1,3-dioxoisoindolin-5-yl)piperazin-1-yl)methyl)-3-azabicyclo[3.1.0]hexan-3-yl)pyrazine-2-carboxamide] | 
> 80% | N#Cc1ccc(O[C@H]2CC[C@H](NC(=O)c3ccc(N4CCC(CN5CCC6(C5)CN(c5cc7c(cc5F)C(=O)N(C5CCC(=O)NC5=O)C7=O)C6)CC4)nn3)CC2)cc1Cl (some centres unmarked) [Compound 184, N-((1r,4r)-4-(3-chloro-4-cyanophenoxy)cyclohexyl)-6-(4-((2-(2-(2,6-dioxopiperidin-3-yl)-6-fluoro-1,3-dioxoisoindolin-5-yl)-2,6-diazaspiro[3.4]octan-6-yl)methyl)piperidin-1-yl)pyridazine-3-formamide] | 
25 to 49% | N#Cc1ccc(O[C@H]2CC[C@H](NC(=O)c3cnc(N4CC(CN5CC6CN(c7cc8c(cc7F)C(=O)N(C7CCC(=O)NC7=O)C8=O)CC6C5)C4)cn3)CC2)cc1Cl (some centres unmarked) [Compound 138] | 
> 80% | N#Cc1ccc(O[C@H]2CC[C@H](NC(=O)c3ccc(N4CCC(CN5CCC6(C5)CN(c5ccc7c(c5)C(=O)N(C5CCC(=O)NC5=O)C7=O)C6)CC4)nn3)CC2)cc1Cl (some centres unmarked) [Compound 185, N-((1r,4r)-4-(3-chloro-4-cyanophenoxy)cyclohexyl)-6-(4-((2-(2-(2,6-dioxopiperidin-3-yl)-1,3-dioxoisoindolin-5-yl)-2,6-diazaspiro[3.4]octan-6-yl)methyl)piperidin-1-yl)pyridazine-3-formamide] | 
> 80% | N#Cc1ccc(O[C@H]2CC[C@H](NC(=O)c3ccc(N4CC5(CCN(CC6CCN(c7cc8c(cc7F)C(=O)N(C7CCC(=O)NC7=O)C8=O)CC6)CC5)C4)nn3)CC2)cc1Cl (some centres unmarked) [Compound 232] | 
50 to 79% | N#Cc1ccc(O[C@H]2CC[C@H](NC(=O)c3cnc(N4CCC(N5CC6CN(c7cc8c(cc7F)C(=O)N(C7CCC(=O)NC7=O)C8=O)CC6C5)CC4)cn3)CC2)cc1Cl (some centres unmarked) [Compound 64, N-((1r,4r)-4-(3-chloro-4-cyanophenoxy)cyclohexyl)-5-(4-(5-(2-(2,6-dioxopiperidin-3-yl)-6-fluoro-1,3-dioxoisoindolin-5-yl)hexahydropyrrolo[3,4-c]pyrrol-2(1H)-yl)piperidin-1-yl)pyrazine-2-carboxamide] | 
50 to 79% | N#Cc1ccc(O[C@H]2CC[C@H](NC(=O)c3ccc(N4CC(CN5CC6CN(c7cc8c(cc7F)C(=O)N(C7CCC(=O)NC7=O)C8=O)CC6C5)C4)nn3)CC2)cc1Cl (some centres unmarked) [Compound 137] | 
